We go through 74 compounds from ChEMBL document CHEMBL1909281, “FDA-approved drug labeling for the study of drug-induced liver injury” (Drug Discov Today, 2011).

In one data set the test system is Hepatotoxicity.
Conditions: not given
For the compound `CC1(C)S[C@@H]2[C@H](NC(=O)[C@H](N)c3ccc(O)cc3)C(=O)N2[C@H]1C(=O)O` [AMOXICILLIN], the “LTKB_BD DILI severity score” value is 3.

Regarding `Nc1nc2c(ncn2COCCO)c(=O)[nH]1` [ACYCLOVIR], the “LTKB_BD DILI severity score” value stood at 5.

On to `CCOC(=O)C(C)(C)Oc1ccc(Cl)cc1` [CLOFIBRATE], for which the “LTKB_BD DILI severity score” value came to 3.

For the compound `O=NN(CCCl)C(=O)NCCCl` [CARMUSTINE], the “LTKB_BD DILI severity score” value is 3.

As for `C[C@H](CS)C(=O)N1CCC[C@H]1C(=O)O` [CAPTOPRIL], the “LTKB_BD DILI severity score” value was 6.

Turning to `CN1C(C(=O)Nc2ccccn2)=C(O)c2ccccc2S1(=O)=O` [PIROXICAM], the “LTKB_BD DILI severity score” value is 3.

Turning to `Fc1ccc([C@@H]2CCNC[C@H]2COc2ccc3c(c2)OCO3)cc1` [PAROXETINE], the “LTKB_BD DILI severity score” value is given as 8.

Consider `CC(NC(C)(C)C)C(=O)c1cccc(Cl)c1` (centres undefined) [BUPROPION], for which the “LTKB_BD DILI severity score” value stood at 5.

As for `Cc1ccc(C)c(OCCCC(C)(C)C(=O)O)c1` [GEMFIBROZIL], the “LTKB_BD DILI severity score” value worked out at 3.

As to `O=C(CCCN1CCC(O)(c2ccc(Cl)cc2)CC1)c1ccc(F)cc1` [HALOPERIDOL], the “LTKB_BD DILI severity score” value is reported as 5.

On to `CN(C)CCCN1c2ccccc2Sc2ccc(Cl)cc21` [CHLORPROMAZINE], for which the “LTKB_BD DILI severity score” value is reported as 2.

On to `NC12CC3CC(CC(C3)C1)C2` [AMANTADINE], for which the “LTKB_BD DILI severity score” value came to 3.

Regarding CARBOPLATIN, the “LTKB_BD DILI severity score” value is given as 3.

As for `O=c1n(CCCN2CCN(c3cccc(Cl)c3)CC2)nc2ccccn12` [TRAZODONE], the “LTKB_BD DILI severity score” value was 5.

Take `O=C1CC2(CCCC2)CC(=O)N1CCCCN1CCN(c2ncccn2)CC1` [BUSPIRONE]: the “LTKB_BD DILI severity score” value stood at 3.

For `CC1=C(/C=C/C(C)=C/C=C/C(C)=C\C(=O)O)C(C)(C)CCC1` [ISOTRETINOIN], the “LTKB_BD DILI severity score” value was found to be 2.

On to `C[C@]12CC[C@@H]3c4ccc(O)cc4CC[C@H]3[C@@H]1CC[C@@H]2O` [ESTRADIOL], for which the “LTKB_BD DILI severity score” value came out at 2.

`O=C([O-])c1cc(=O)c2c(OCC(O)COc3cccc4oc(C(=O)[O-])cc(=O)c34)cccc2o1.[Na+].[Na+]` [CROMOLYN SODIUM]: the “LTKB_BD DILI severity score” value turned out to be 3.

Take `C[C@]12C=CC(=O)C=C1CC[C@@H]1[C@@H]2[C@@H](O)C[C@@]2(C)[C@H]1CC[C@]2(O)C(=O)CO` [PREDNISOLONE]: the “LTKB_BD DILI severity score” value was 3.

On to `O[C@@H]1CO[C@H]2[C@@H]1OC[C@@H]2O` [ISOSORBIDE], for which the “LTKB_BD DILI severity score” value is recorded as 3.

Take `Clc1ccccc1C(c1ccccc1)(c1ccccc1)n1ccnc1` [CLOTRIMAZOLE]: the “LTKB_BD DILI severity score” value worked out at 3.

On to `CC(C)NCC(O)COc1cccc2ccccc12` (centres undefined) [PROPRANOLOL], for which the “LTKB_BD DILI severity score” value turned out to be 3.

`C=C(CC)C(=O)c1ccc(OCC(=O)O)c(Cl)c1Cl` [ETHACRYNIC ACID]: the “LTKB_BD DILI severity score” value turned out to be 5.

For the compound `CN(C)CCOc1ccc(/C(=C(/CCCl)c2ccccc2)c2ccccc2)cc1` [TOREMIFENE], the “LTKB_BD DILI severity score” value amounted to 3.

On to `CCC1=C(C)CN(C(=O)NCCc2ccc(S(=O)(=O)NC(=O)N[C@H]3CC[C@H](C)CC3)cc2)C1=O` [GLIMEPIRIDE], for which the “LTKB_BD DILI severity score” value is given as 7.

Regarding `CN(C)[C@@H]1C(O)=C(C(N)=O)C(=O)[C@@]2(O)C(O)=C3C(=O)c4c(O)cccc4[C@@](C)(O)[C@H]3C[C@@H]12` [TETRACYCLINE], the “LTKB_BD DILI severity score” value was found to be 2.

As to `COC(=O)C1=C(C)NC(C)=C(C(=O)OC)C1c1ccccc1[N+](=O)[O-]` [NIFEDIPINE], the “LTKB_BD DILI severity score” value is on record as 3.

On to `O=P1(NCCCl)OCCCN1CCCl` (centres undefined) [IFOSFAMIDE], for which the “LTKB_BD DILI severity score” value came out at 4.

In the case of `CCOC(=O)[C@H](CCc1ccccc1)N[C@@H](C)C(=O)N1CCC[C@H]1C(=O)O`, the “LTKB_BD DILI severity score” value came out at 4.

Turning to `CCOC(=O)C1=C[C@@H](OC(CC)CC)[C@H](NC(C)=O)[C@@H](N)C1` [OSELTAMIVIR], the “LTKB_BD DILI severity score” value stood at 3.

Consider `CN(C)c1nc(N(C)C)nc(N(C)C)n1` [ALTRETAMINE], for which the “LTKB_BD DILI severity score” value was determined as 2.

Consider `CC(C)NCC(O)COc1ccc(COCCOC(C)C)cc1` (centres undefined) [BISOPROLOL], for which the “LTKB_BD DILI severity score” value came to 3.

For the compound `CN(C)CCCN1c2ccccc2CCc2ccccc21` [IMIPRAMINE], the “LTKB_BD DILI severity score” value was 3.

Regarding `COC1=CC(=O)C[C@@H](C)[C@]12Oc1c(Cl)c(OC)cc(OC)c1C2=O` [GRISEOFULVIN], the “LTKB_BD DILI severity score” value came to 3.

As to `CN(C)c1ccc(O)c2c1C[C@H]1C[C@H]3[C@H](N(C)C)C(O)=C(C(N)=O)C(=O)[C@@]3(O)C(O)=C1C2=O` [MINOCYCLINE], the “LTKB_BD DILI severity score” value was found to be 2.

`CNC(=C[N+](=O)[O-])NCCSCc1ccc(CN(C)C)o1` [RANITIDINE]: the “LTKB_BD DILI severity score” value was 5.

As for `COc1ccc(C(CN(C)C)C2(O)CCCCC2)cc1` (centres undefined) [VENLAFAXINE], the “LTKB_BD DILI severity score” value stood at 7.

Take `COc1cc2c(c(OC)c1OC)-c1ccc(OC)c(=O)cc1[C@@H](NC(C)=O)CC2` [COLCHICINE]: the “LTKB_BD DILI severity score” value amounted to 6.

Take `CC(C)(S)[C@@H](N)C(=O)O` [PENICILLAMINE]: the “LTKB_BD DILI severity score” value was 3.

In the case of `O=C(c1ccccc1)c1ccc2n1CCC2C(=O)O` (centres undefined) [KETOROLAC], the “LTKB_BD DILI severity score” value is on record as 3.

`CCN(CC)CCCC(C)Nc1ccnc2cc(Cl)ccc12` (centres undefined) [CHLOROQUINE]: the “LTKB_BD DILI severity score” value is 3.

As to `CC(C)(O)c1ccccc1CC[C@@H](SCC1(CC(=O)O)CC1)c1cccc(/C=C/c2ccc3ccc(Cl)cc3n2)c1` [MONTELUKAST], the “LTKB_BD DILI severity score” value is on record as 3.

Consider `CC(=O)S[C@@H]1CC2=CC(=O)CC[C@]2(C)[C@H]2CC[C@@]3(C)[C@@H](CC[C@@]34CCC(=O)O4)[C@H]12` [SPIRONOLACTONE], for which the “LTKB_BD DILI severity score” value is 2.

The data set is the same for the next values; noted with them: Liver.
For the compound `Cc1cccc(C)c1OCC(C)N` (centres undefined) [MEXILETINE], the “LTKB_BD DILI severity score” value worked out at 3.

Consider `Clc1cccc(Cl)c1N=C1NCCN1` [CLONIDINE], for which the “LTKB_BD DILI severity score” value amounted to 3.

Turning to `O=P1(N(CCCl)CCCl)NCCCO1` (centres undefined) [CYCLOPHOSPHAMIDE ANHYDROUS], the “LTKB_BD DILI severity score” value is 5.

`CN/C(=N/CCSCc1nc[nH]c1C)NC#N` [CIMETIDINE]: the “LTKB_BD DILI severity score” value is listed as 2.

Take `CNCCCN1c2ccccc2CCc2ccccc21` [DESIPRAMINE]: the “LTKB_BD DILI severity score” value turned out to be 3.

As for `NC(N)=Nc1nc(CSCCC(N)=NS(N)(=O)=O)cs1` [FAMOTIDINE], the “LTKB_BD DILI severity score” value is listed as 3.

`COc1ccc2cc([C@H](C)C(=O)O)ccc2c1` [NAPROXEN]: the “LTKB_BD DILI severity score” value worked out at 3.

For another data set, the system named is Hepatotoxicity. As to the kind of experiment: FDA Liver Toxicity Knowledge Base Benchmark Dataset (LTKB-BD) drugs of most concern for DILI.
Conditions: not given
For `C[C@H]1O[C@H](O[C@H]2[C@H](O)[C@@H](O)[C@@H](O[C@H]3[C@H](O)[C@@H](O)C(O)O[C@@H]3CO)O[C@@H]2CO)[C@H](O)[C@@H](O)[C@@H]1N[C@H]1C=C(CO)[C@@H](O)[C@H](O)[C@H]1O` (some centres undefined) [ACARBOSE], the “LTKB_BD DILI severity score” value was found to be 5.

On to `CC(C)c1nc(CN(C)C(=O)N[C@H](C(=O)N[C@@H](Cc2ccccc2)C[C@H](O)[C@H](Cc2ccccc2)NC(=O)OCc2cncs2)C(C)C)cs1` [RITONAVIR], for which the “LTKB_BD DILI severity score” value came out at 5.

Regarding `CN(N=O)C(=O)N[C@@H](C=O)[C@@H](O)[C@H](O)[C@H](O)CO` [STREPTOZOCIN], the “LTKB_BD DILI severity score” value is listed as 3.

In the case of `COc1ccccc1Oc1c(NS(=O)(=O)c2ccc(C(C)(C)C)cc2)nc(-c2ncccn2)nc1OCCO` [BOSENTAN], the “LTKB_BD DILI severity score” value is on record as 7.

For the compound `COC(c1ccccc1)(c1ccccc1)[C@H](Oc1nc(C)cc(C)n1)C(=O)O` [AMBRISENTAN], the “LTKB_BD DILI severity score” value is 5.

`CS(=O)(=O)OCCCCOS(C)(=O)=O` [BUSULFAN]: the “LTKB_BD DILI severity score” value amounted to 8.

Take `C[C@H](Cn1cnc2c(N)ncnc21)OCP(=O)(O)O` [TENOFOVIR ANHYDROUS]: the “LTKB_BD DILI severity score” value amounted to 8.

In the case of `CCCCCCCCCCC[C@@H](C[C@@H]1OC(=O)[C@H]1CCCCCC)OC(=O)[C@H](CC(C)C)NC=O` [ORLISTAT], the “LTKB_BD DILI severity score” value stood at 8.

Turning to `CN(C)/N=N/c1[nH]cnc1C(N)=O` [DACARBAZINE], the “LTKB_BD DILI severity score” value was found to be 6.

With `O=c1[nH]cnc2c1ncn2[C@H]1CC[C@@H](CO)O1` [DIDANOSINE], the “LTKB_BD DILI severity score” value came out at 8.

Take `NC(=O)NO` [HYDROXYUREA]: the “LTKB_BD DILI severity score” value is 8.

On to `CC[C@H]1OC(=O)[C@H](C)[C@@H](O[C@H]2C[C@@](C)(OC)[C@@H](O)[C@H](C)O2)[C@H](C)[C@@H](O[C@@H]2O[C@H](C)C[C@H](N(C)C)[C@H]2O)[C@](C)(O)C[C@@H](C)C(=O)[C@H](C)[C@@H](O)[C@]1(C)O` [ERYTHROMYCIN], for which the “LTKB_BD DILI severity score” value is listed as 5.

On to `C[C@@](Cc1ccc(O)c(O)c1)(NN)C(=O)O.O` [CARBIDOPA], for which the “LTKB_BD DILI severity score” value was determined as 4.

On to `Cc1oncc1C(=O)Nc1ccc(C(F)(F)F)cc1` [LEFLUNOMIDE], for which the “LTKB_BD DILI severity score” value was determined as 8.

With `Cc1cc(C(=O)NNCc2ccccc2)no1` [ISOCARBOXAZID], the “LTKB_BD DILI severity score” value came out at 5.

Turning to `C[C@]12COC(=O)C[C@@H]1CC[C@@H]1[C@@H]2CC[C@@]2(C)[C@H]1CC[C@]2(C)O` [OXANDROLONE], the “LTKB_BD DILI severity score” value worked out at 8.

For `CO[C@H]1/C=C/O[C@@]2(C)Oc3c(C)c(O)c4c(O)c(c(/C=N/N5CCN(C)CC5)c(O)c4c3C2=O)NC(=O)/C(C)=C\C=C\[C@H](C)[C@H](O)[C@@H](C)[C@@H](O)[C@@H](C)[C@H](OC(C)=O)[C@@H]1C` [RIFAMPIN], the “LTKB_BD DILI severity score” value stood at 8.

Regarding `CC(CCc1ccccc1)NCC(O)c1ccc(O)c(C(N)=O)c1` (centres undefined) [LABETALOL], the “LTKB_BD DILI severity score” value was determined as 8.

The data set is the same for the next values; noted with them: Liver.
On to `Cc1ccc(C(=O)c2cc(O)c(O)c([N+](=O)[O-])c2)cc1` [TOLCAPONE], for which the “LTKB_BD DILI severity score” value stood at 8.

For `Nc1c2c(nc3ccccc13)CCCC2` [TACRINE], the “LTKB_BD DILI severity score” value amounted to 7.

In the case of `Nc1ccn([C@H]2CC[C@@H](CO)O2)c(=O)n1` [ZALCITABINE], the “LTKB_BD DILI severity score” value was 8.

Regarding `CNCCC=C1c2ccccc2CCc2ccccc21` [NORTRIPTYLINE], the “LTKB_BD DILI severity score” value amounted to 8.

`Sc1ncnc2nc[nH]c12` [MERCAPTOPURINE ANHYDROUS]: the “LTKB_BD DILI severity score” value is 8.

On to `O=C(O)Cc1ccccc1Nc1c(Cl)cccc1Cl` [DICLOFENAC], for which the “LTKB_BD DILI severity score” value is 7.
